From US12433876B2, “Septin inhibitors for treatment of cancers” (UNIVERSITY OF ROCHESTER, priority 2019, dated 2025)

Target: T1, septin-2 (Homo sapiens, UniProt Q15019)
T1 sequence (Q15019 1-361): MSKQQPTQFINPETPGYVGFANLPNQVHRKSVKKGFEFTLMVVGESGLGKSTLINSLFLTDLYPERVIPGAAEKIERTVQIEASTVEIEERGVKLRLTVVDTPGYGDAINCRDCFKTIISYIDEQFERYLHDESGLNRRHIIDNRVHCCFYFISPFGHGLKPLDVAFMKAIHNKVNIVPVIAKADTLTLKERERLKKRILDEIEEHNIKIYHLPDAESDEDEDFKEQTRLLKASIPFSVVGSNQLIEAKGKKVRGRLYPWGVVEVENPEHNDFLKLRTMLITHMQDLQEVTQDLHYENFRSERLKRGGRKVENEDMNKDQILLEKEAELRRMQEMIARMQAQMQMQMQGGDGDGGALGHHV
Experiment: Confocal analysis of septin-2 filament structure
Assay type: cell-based
Settings: 48 hours
Source text: Cell Cycle Protein Expression. Cell Cycle Antibody Array (FullMoon BioSystems Inc, catalogue number: ACC:058), a high throughput ELISA based antibody array, designed for qualitative/semi-quantitative protein expression profiling was employed to investigate the protein changes after drug treatment. PANC-1 cells were lysed in buffer containing protease and phosphatase inhibitors (Cell Signaling, catalog number: 9803S). Total protein content was quantified by Bradford assay and equal amounts of proteins were analyzed in duplicate with arrays containing 4 to 6 spots for each of 60 probes (ACC058, Cell Cycle Antibody Array; Full Moon Biosystems, Sunnyvale, Calif.), according to manufacturer's instructions. After background correction, mean signal intensities were measured using FullMoon Inc's imaging services. Protein expressions in both the naïve and 328 treatment group was normalized to GAPDH signals. Confocal Analysis of Septin Disarrangement. To determine the impact of UR214-9 treatment on Septin-2 structure in cells, PANC-1 or JIMT-1 cells were seeded on glass slides and allowed to adhere overnight. The media was replaced with complete DMEM media supplemented with DMSO or UR214-9 (1 μM and 70 nM) and cells were incubated for 48 hours. Media was replaced again with new complete medium and fixed with neutral buffered formalin for 15 minutes at […]. Media was removed and cells were washed repeatedly with PBST (5×5 mL). The cells were stained with Septin-2 antibody (Sigma Aldrich, catalog number: HPA018481) in PSB overnight at […]. Media was removed again and cells were washed with 2×5 mL PBST. The cells were stained with fluorescence linked secondary antibody for 1 hr under dark. Slides were washed repeatedly in dark for 7×5 mL PBST, mounting medium containing DAPI (Vector labs) were applied and covered with glass slide. The slides were stored in dark at […] till analysis. Confocal images were obtained and processed essentially as published earlier (see Moore, R. G., Hill, E. K., Horan, T., Yano, N., Kim, K., MacLaughlan, S., Lambert-Messerlian, G., Tseng, Y. D., Padbury, J. F., Miller, M. C., Lange, T. S., Singh, R. K. Sci Rep. 4, 3574, 2014). Pancreatic tumor microarray (US Biomax, cat no: T142a) were deparaffinized, processed and stained with Septin-2 antibody (Sigma Aldrich, cat number: HPA018481) overnight, washed with PBST and incubated with source matched secondary (FITC) for an hour. Slide was washed in PBST (5×10 mL) for five minutes each. DAPI containing mounting media was applied and covered with a glass slide. Confocal images were acquired with Nikon C1si confocal microscope (Nikon Inc. Mellville N.Y.) using diode lasers 402, 488 and 561. […] Five cells were outlined and analyzed per field. […]

Structure (SMILES): O=C(Nc1ccccc1)Nc1ccnc(Cl)c1 [FCF, N-(2-chloro-4-pyridyl)-N′-phenylurea, reference compound]
- septin-2 filaments (BXPC-3 cells, 60 μM): strengthen the septin-2 filaments

Structure (SMILES): O=C(Nc1cc(Cl)nc(Cl)c1)Nc1cccc(SC(F)(F)F)c1F [UR214-9]
- septin-2 needles (JIMT-1, 1 μM): structural disruptions and relocation to nuclear periphery
- septin-2 needles (PANC-1, 1 uM): disarranged and translocated at the cell-surface
- septin-2 filaments (SKOV-3, 1 μM): complete disruption of septin-2 filaments
